The test system of assay [1] is K562. The assay is described as follows: Induction of apoptosis in human K562 cells assessed as viable cells at 1 uM incubated for 24 hrs by Annexin V-FITC/PI staining based flow cytometric analysis (reference value: 90.02 %). The class given is functional. Conditions: read-out: Activity. A general note: Flow cytometry measures light scatter and fluorescence of single cells or particles in a stream.

Assay [2] deals with T1, Retinoic acid receptor gamma (Homo sapiens) (UniProt P13631).
T1 sequence (whole entry): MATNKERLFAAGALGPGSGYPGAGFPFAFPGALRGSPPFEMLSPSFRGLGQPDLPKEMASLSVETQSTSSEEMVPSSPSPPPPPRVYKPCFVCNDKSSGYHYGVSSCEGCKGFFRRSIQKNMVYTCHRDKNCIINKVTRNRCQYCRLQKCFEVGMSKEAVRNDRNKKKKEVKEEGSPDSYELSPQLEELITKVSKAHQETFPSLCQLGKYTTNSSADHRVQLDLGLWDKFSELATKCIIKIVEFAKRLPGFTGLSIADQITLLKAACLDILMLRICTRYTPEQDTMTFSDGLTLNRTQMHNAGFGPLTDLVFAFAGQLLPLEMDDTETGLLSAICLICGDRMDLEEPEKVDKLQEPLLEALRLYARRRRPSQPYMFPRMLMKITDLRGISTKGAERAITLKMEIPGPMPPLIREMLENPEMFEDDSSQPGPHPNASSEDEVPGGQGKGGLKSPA
Briefly: Agonist activity at Gal4-fused full length RARgamma LBD (unknown origin) transfected in HEK293T cells co-transfected with pG5luc reporter and Renilla-luc assessed as transactivation at 0.1 to 1 uM incubated for 12 hrs by luciferase reporter gene assay. The class given is cell-based. Conditions: dose 0.1-1 µM. Background: A reporter such as luciferase makes a cellular process visible.

Assay [3] relates to K562. Briefly: Induction of apoptosis in human K562 cells assessed as necrotic cells at 1 uM incubated for 24 hrs by Annexin V-FITC/PI staining based flow cytometric analysis (reference value: 2.19 %). The class given is functional.
For assay [4], the target named is T2, Retinoic acid receptor alpha (Homo sapiens, UniProt P10276).
T2 sequence (P10276 whole entry): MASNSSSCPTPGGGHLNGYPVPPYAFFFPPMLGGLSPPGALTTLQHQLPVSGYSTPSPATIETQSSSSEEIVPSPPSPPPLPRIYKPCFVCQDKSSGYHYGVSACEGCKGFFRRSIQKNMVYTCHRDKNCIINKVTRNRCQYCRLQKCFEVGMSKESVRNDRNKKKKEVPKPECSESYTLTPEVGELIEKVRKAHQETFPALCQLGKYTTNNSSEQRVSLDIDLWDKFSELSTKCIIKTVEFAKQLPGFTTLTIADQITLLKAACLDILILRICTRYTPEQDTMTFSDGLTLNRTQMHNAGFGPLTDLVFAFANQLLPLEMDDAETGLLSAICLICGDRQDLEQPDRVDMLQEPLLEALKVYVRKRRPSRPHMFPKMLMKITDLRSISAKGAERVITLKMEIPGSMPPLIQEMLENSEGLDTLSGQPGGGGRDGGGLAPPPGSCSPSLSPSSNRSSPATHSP
The assay is described as follows: Agonist activity at Gal4-fused full length human RARalpha LBD transfected in HEK293T cells co-transfected with pG5luc reporter and Renilla-luc assessed as transactivation incubated for 12 hrs by dual luciferase reporter gene assay. The class given is cell-based.

Assay [5] has as its system ATRA-resistant NB4-LR2. The assay is described as follows: Cell cycle arrest in human ATRA-resistant NB4-LR2 cells assessed as accumulation of cells at G2/M phase at higher concentration by DAPI staining based flow cytometric analysis. The class given is functional.
Assay [6] has as its system ATRA-resistant NB4-LR2. The assay is described as follows: Antiproliferative activity against human ATRA-resistant NB4-LR2 cells assessed as effect on cell viability up to 2 uM incubated for 3 days by CCK8 assay. The format is functional, cell-based. Particulars: time 3.0 day. (Tetrazolium dyes change colour on reduction, which living cells bring about.)
The nature of assay [7]: Cell cycle arrest in human ATRA-resistant NB4-LR2 cells assessed as accumulation of cells at S phase at 0.5 uM incubated for 24 hrs by DAPI staining based flow cytometric analysis (reference value: 21 %). The format is functional.
Assay [8] in a line: Cell cycle arrest in human ATRA-resistant NB4-LR2 cells assessed as accumulation of cells at G2/M phase at 1 uM incubated for 12 hrs by DAPI staining based flow cytometric analysis (reference value: 28 %). The class given is functional.
Assay [9] deals with NB-4. Briefly: Cell cycle arrest in human NB4 cells assessed as accumulation of cells at sub-G1 phase at 2 uM incubated for 6 hrs by DAPI staining based flow cytometric analysis (reference value: 3 %). The format is functional.
Assay [10] can be described thus: Induction of apoptosis in human ATRA-resistant NB4-LR2 cells assessed as early apoptotic cells at 1 uM incubated for 24 hrs by Annexin V-FITC/PI staining based flow cytometric analysis (reference value: 1.41 %). The format is functional.
In assay [11] the test system is NB-4. Briefly: Cell cycle arrest in human NB4 cells assessed as accumulation of cells at G2/M phase at 2 uM incubated for 6 hrs by DAPI staining based flow cytometric analysis (reference value: 21 %). The class given is functional.
The subject of assay [12] is NB-4. The assay is described as follows: Cell cycle arrest in human NB4 cells assessed as accumulation of cells at G0/G1 phase at 2 uM incubated for 12 hrs by DAPI staining based flow cytometric analysis (reference value: 56 %). The class given is functional.
Assay [13] relates to NB-4. The assay is described as follows: Cell cycle arrest in human NB4 cells assessed as accumulation of cells at S phase at 2 uM incubated for 24 hrs by DAPI staining based flow cytometric analysis (reference value: 26 %). The class given is functional.
For assay [14], the system named is NB-4. Briefly: Induction of apoptosis in human NB4 cells assessed as late apoptotic cells at 1 uM incubated for 24 hrs by Annexin V-FITC/PI staining based flow cytometric analysis (reference value: 2.23 %). The format is functional.
The test system of assay [15] is NB-4. Briefly: Cell cycle arrest in human NB4 cells transfected with pLVX-shRXRalpha plasmid assessed as accumulation of cells at G2/M phase at 2 uM incubated for 12 hrs by DAPI staining based flow cytometric analysis (reference value: 17 %). The class given is functional.
For assay [16], the system named is NB-4. The assay is described as follows: Cell cycle arrest in human NB4 cells assessed as accumulation of cells at G0/G1 phase at 2 uM incubated for 6 hrs by DAPI staining based flow cytometric analysis (reference value: 56 %). The class given is functional.
For assay [17], the system named is NB-4. Briefly: Cell cycle arrest in human NB4 cells assessed as accumulation of cells at G0/G1 phase at 1 uM incubated for 24 hrs by DAPI staining based flow cytometric analysis (reference value: 48 %). The class given is functional.
The test system of assay [18] is NB-4. Briefly: Cell cycle arrest in human NB4 cells transfected with pLVX-shPML-RARalpha plasmid assessed as accumulation of cells at S phase at 2 uM incubated for 12 hrs by DAPI staining based flow cytometric analysis (reference value: 19 %). The class given is functional.
In assay [19] the test system is NB-4. The assay is described as follows: Cell cycle arrest in human NB4 cells assessed as accumulation of cells at sub-G1 phase at 2 uM incubated for 12 hrs by DAPI staining based flow cytometric analysis (reference value: 3 %). The format is functional.
The nature of assay [20]: Induction of apoptosis in human ATRA-resistant NB4-LR2 cells assessed as late apoptotic cells at 1 uM incubated for 24 hrs by Annexin V-FITC/PI staining based flow cytometric analysis (reference value: 5.62 %). The format is functional.
Assay [21] deals with NB-4. Briefly: Cell cycle arrest in human NB4 cells assessed as accumulation of cells at S phase at 1 uM incubated for 12 hrs by DAPI staining based flow cytometric analysis (reference value: 20 %). The class given is functional.
Assay [22] has as its system NB-4. The assay is described as follows: Cell cycle arrest in human NB4 cells transfected with pLVX-shPML-RARalpha plasmid assessed as accumulation of cells at G0/G1 phase at 2 uM incubated for 12 hrs by DAPI staining based flow cytometric analysis (reference value: 38 %). The format is functional.

Structures are written as SMILES. Calls of active or inactive are those of the source. The calls are words filed in the database; no cut-off is given here.

One may read the EC50 as the concentration that produces a half-maximal response. In the case of `Cc1cc2c(cc1C(=O)/C(Br)=C\c1ccc(C(=O)O)cc1)C(C)(C)CCC2(C)C`, the viability at 1 µM in the assay on K562 [1] came out at 90.4%. The Activity result in [2] was “Weak_effect”; in the assay with K562 [3], 2.02%. Moreover, the 50% effective concentration (EC50) in assay [4] was found to be 419 nM. In addition, the result in the assay on ATRA-resistant NB4-LR2 [5] and in the assay with ATRA-resistant NB4-LR2 [6] was Active.

Consider `Cc1cc2c(cc1C(=O)/C(Br)=C/c1ccc(C(=O)O)cc1)C(C)(C)CCC2(C)C`, for which, in the assay on K562 [1], the viability at 1 µM was determined as 89.3%. Besides, the Activity result in assay [2] is “Weak_effect”; with K562 [3] it was 2.27%; in [7] it was 12%; in assay [8], 52%; with NB-4 [9] it was 3%; in [10], 27.7%. The Activity in the assay with NB-4 [11] was 40%; in the assay with NB-4 [12] it was 11%; in the assay with NB-4 [13], 19%; with NB-4 [14] it was 18.68%; in the assay with NB-4 [15], 26%; in the assay with NB-4 [16], 30%. Further, the Activity in the assay on NB-4 [17] came to 38%; in the assay on NB-4 [18] it was 11%; in the assay with NB-4 [19], 4%; in assay [20] it was 20.28%; in the assay on NB-4 [21], 13%; with NB-4 [22], 31%. Besides, the EC50 in assay [4] came to 424 nM. For the same compound, the result with ATRA-resistant NB4-LR2 [6] was Active.

The values above are taken from ChEMBL document CHEMBL6134780, “Halogenated retinoid derivatives as dual RARα and RXRα modulators for treating acute promyelocytic leukemia cells” (Eur J Med Chem, 2024).
